Measurements reported in patent publication US8802597B2, “Herbicidal pyrimidines” (E I du Pont de Nemours and Company, priority 2003, dated 2014).
Like-named read-outs stand apart in the source and are kept apart here.

Legend:
Assay in all cases: Test C pre/postemergence
Type in all cases: in vivo
[1] = system: giant foxtail (Setaria faberii); conditions: Setaria faberi, pre-emergence, Preemergence, read-out: Plant response rating, Foxtail, Giant
In short: (§1)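 Pre: seeds planted, sprayed same day. Post: 1- to 4-leaf plants (2–18 cm). Formulation: non-phytotoxic solvent + surfactant. Greenhouse 12–14 d; visual % control vs untreated, 0–100.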

[2] = system: johnsongrass (Sorghum halepense); conditions: Sorghum halepense; for pest or weed control at 62 g/ha: 62 g ai/ha; for pest or weed control at 125 g/ha: 125 g ai/ha; for pest or weed control at 250 g/ha: 250 g ai/ha; for pest or weed control at 500 g/ha: 500 g ai/ha
In short: as §1

[3] = system: kochia (Kochia scoparia); conditions: Bassia scoparia; for pest or weed control at 62 g/ha: 62 g ai/ha; for pest or weed control at 125 g/ha: 125 g ai/ha; for pest or weed control at 250 g/ha: 250 g ai/ha; for pest or weed control at 500 g/ha: 500 g ai/ha
In short: as §1

[4] = system: lambsquarters (Chenopodium album); conditions: Chenopodium album; for pest or weed control at 62 g/ha: 62 g ai/ha; for pest or weed control at 125 g/ha: 125 g ai/ha; for pest or weed control at 250 g/ha: 250 g ai/ha; for pest or weed control at 500 g/ha: 500 g ai/ha
In short: as §1

[5] = system: morningglory (Ipomoea coccinea); conditions: Ipomoea; for pest or weed control at 62 g/ha: 62 g ai/ha; for pest or weed control at 125 g/ha: 125 g ai/ha; for pest or weed control at 250 g/ha: 250 g ai/ha; for pest or weed control at 500 g/ha: 500 g ai/ha
In short: as §1

[6] = system: soybean (Glycine max); conditions: Glycine max; for plant injury at 62 g/ha: 62 g ai/ha; for plant injury at 125 g/ha: 125 g ai/ha; for plant injury at 250 g/ha: 250 g ai/ha; for plant injury at 500 g/ha: 500 g ai/ha
In short: as §1

[7] = post-emergence, Postemergence, scale 0 to 100 (0 no effect, 100 complete control), read-out: Johnsongrass plant response rating
[8] = post-emergence, Postemergence, scale 0 to 100, read-out: Plant response rating, Johnsongrass
[9] = pre-emergence, Preemergence, scale 0 to 100, read-out: Plant response rating, Johnsongrass
[10] = post-emergence, Postemergence, scale 0 to 100 (0 no effect, 100 complete control), read-out: Kochia plant response rating
[11] = post-emergence, Postemergence, scale 0 to 100, read-out: Plant response rating, Kochia
[12] = pre-emergence, Preemergence, scale 0 to 100, read-out: Plant response rating, Kochia
[13] = post-emergence, Postemergence, scale 0 to 100 (0 no effect, 100 complete control), read-out: Lambsquarters plant response rating
[14] = post-emergence, Postemergence, scale 0 to 100, read-out: Plant response rating, Lambsquarters
[15] = pre-emergence, Preemergence, scale 0 to 100, read-out: Plant response rating, Lambsquarters
[16] = post-emergence, Postemergence, scale 0 to 100 (0 no effect, 100 complete control), read-out: Morningglory plant response rating
[17] = post-emergence, Postemergence, scale 0 to 100, read-out: Plant response rating, Morningglory
[18] = pre-emergence, Preemergence, scale 0 to 100, read-out: Plant response rating, Morningglory
[19] = post-emergence, Postemergence, scale 0 to 100 (0 no effect, 100 complete control), read-out: Soybean plant response rating
[20] = post-emergence, Postemergence, scale 0 to 100, read-out: Plant response rating, Soybean
[21] = pre-emergence, Preemergence, scale 0 to 100, read-out: Plant response rating, Soybean

Structure (SMILES): CCOC(=O)c1nc(C2CC2)nc(N)c1Br [Compound 1, ethyl 6-amino-5-bromo-2-cyclopropyl-4-pyrimidinecarboxylate]
- pest or weed control at 62 g/ha ([1]; 62 g ai/ha, scale 0 to 100, 0 no effect, 100 complete control): 0%
- pest or weed control at 125 g/ha ([1]; 125 g ai/ha, scale 0 to 100): 30%
- pest or weed control at 250 g/ha ([1]; 250 g ai/ha, scale 0 to 100): 90%
- pest or weed control at 500 g/ha ([1]; 500 g ai/ha, scale 0 to 100): 90%
- pest or weed control at 62 g/ha [2, 7]: 30%
- pest or weed control at 125 g/ha [2, 7]: 30%
- pest or weed control at 250 g/ha [2, 8]: 70%
- pest or weed control at 500 g/ha [2, 8]: 70%
- pest or weed control at 62 g/ha ([2]; pre-emergence, Preemergence, scale 0 to 100, 0 no effect, 100 complete control, read-out: Plant response rating, Johnsongrass): 0%
- pest or weed control at 125 g/ha [2, 9]: 30%
- pest or weed control at 250 g/ha [2, 9]: 80%
- pest or weed control at 500 g/ha [2, 9]: 90%
- pest or weed control at 62 g/ha [3, 10]: 100%
- pest or weed control at 125 g/ha [3, 10]: 100%
- pest or weed control at 250 g/ha [3, 11]: 100%
- pest or weed control at 500 g/ha [3, 11]: 100%
- pest or weed control at 62 g/ha ([3]; pre-emergence, Preemergence, scale 0 to 100, 0 no effect, 100 complete control, read-out: Plant response rating, Kochia): 95%
- pest or weed control at 125 g/ha [3, 12]: 100%
- pest or weed control at 250 g/ha [3, 12]: 100%
- pest or weed control at 500 g/ha [3, 12]: 100%
- pest or weed control at 62 g/ha [4, 13]: 100%
- pest or weed control at 125 g/ha [4, 13]: 100%
- pest or weed control at 250 g/ha [4, 14]: 100%
- pest or weed control at 500 g/ha [4, 14]: 100%
- pest or weed control at 62 g/ha ([4]; pre-emergence, Preemergence, scale 0 to 100, 0 no effect, 100 complete control, read-out: Plant response rating, Lambsquarters): 95%
- pest or weed control at 125 g/ha [4, 15]: 100%
- pest or weed control at 250 g/ha [4, 15]: 100%
- pest or weed control at 500 g/ha [4, 15]: 100%
- pest or weed control at 62 g/ha [5, 16]: 100%
- pest or weed control at 125 g/ha [5, 16]: 100%
- pest or weed control at 250 g/ha [5, 17]: 100%
- pest or weed control at 500 g/ha [5, 17]: 100%
- pest or weed control at 62 g/ha ([5]; pre-emergence, Preemergence, scale 0 to 100, 0 no effect, 100 complete control, read-out: Plant response rating, Morningglory): 90%
- pest or weed control at 125 g/ha [5, 18]: 100%
- pest or weed control at 250 g/ha [5, 18]: 100%
- pest or weed control at 500 g/ha [5, 18]: 100%
- plant injury at 62 g/ha [6, 19]: 100%
- plant injury at 125 g/ha [6, 19]: 100%
- plant injury at 250 g/ha [6, 20]: 100%
- plant injury at 500 g/ha [6, 20]: 100%
- plant injury at 62 g/ha ([6]; pre-emergence, Preemergence, scale 0 to 100, 0 no effect, 100 complete control, read-out: Plant response rating, Soybean): 85%
- plant injury at 125 g/ha [6, 21]: 100%
- plant injury at 250 g/ha [6, 21]: 100%
- plant injury at 500 g/ha [6, 21]: 100%
